In general, Ki refers to the equilibrium dissociation constant of an inhibitor or competing ligand from its target.

Test [1] addresses T1, human adenosine A2A receptor (Homo sapiens, UniProt P29274).
T1 construct: expressed in transfected cells; host or cells: CHO cells, Semliki Forest virus expression system; membrane preparation
Nature of the test: Human adenosine A2A receptor [3H]-SCH-58261 binding assay. The conditions noted are these: for Ki: affinity to human adenosine A2A receptor, read-out: Ki HA2A; for selectivity (A1/A2a): calculated ratio of the affinity to the HA1 receptor to the HA2a receptor. As to the method: Human Adenosine A2A Receptor
The human adenosine A2A receptor was recombinantly expressed in chinese hamster ovary (CHO) cells using the semliki forest virus expression system. Cells were harvested, washed twice by centrifugation, homogenized and again washed by centrifugation. The final washed membrane pellet was suspended in a Tris (50 mM) buffer containing 120 mM NaCl, 5 mM KCl, 2 mM CaCl2 and 10 MM MgCl2 (pH 7.4) (buffer A). […] Compounds were tested at 10 concentrations from 10 μM-0.3 nM. All assays were conducted in duplicate and repeated at least two times. Assay plates were incubated for 1 hour at room temperature before centrifugation and then bound ligand determined using a Packard Topcount scintillation counter. IC50 values were calculated using a non-linear curve fitting program and Ki values calculated using the Cheng-Prussoff equation.

Test [2] deals with T2, HA1 adenosine receptor (Homo sapiens, UniProt P30542).
T2 sequence (P30542 1-326): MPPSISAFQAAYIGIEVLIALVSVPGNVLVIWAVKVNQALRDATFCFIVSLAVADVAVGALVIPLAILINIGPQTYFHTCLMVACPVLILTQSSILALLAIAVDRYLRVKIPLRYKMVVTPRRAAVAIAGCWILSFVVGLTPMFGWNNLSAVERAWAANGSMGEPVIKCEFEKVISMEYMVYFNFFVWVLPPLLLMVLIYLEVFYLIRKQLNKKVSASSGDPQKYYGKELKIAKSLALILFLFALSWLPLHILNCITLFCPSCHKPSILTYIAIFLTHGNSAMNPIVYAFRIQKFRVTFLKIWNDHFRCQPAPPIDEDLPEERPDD
Nature of the test: Human adenosine A1 receptor affinity (Ki hA1). It counts as binding. Conditions: affinity to human adenosine A1 receptor.

T1 sequence (P29274 whole entry): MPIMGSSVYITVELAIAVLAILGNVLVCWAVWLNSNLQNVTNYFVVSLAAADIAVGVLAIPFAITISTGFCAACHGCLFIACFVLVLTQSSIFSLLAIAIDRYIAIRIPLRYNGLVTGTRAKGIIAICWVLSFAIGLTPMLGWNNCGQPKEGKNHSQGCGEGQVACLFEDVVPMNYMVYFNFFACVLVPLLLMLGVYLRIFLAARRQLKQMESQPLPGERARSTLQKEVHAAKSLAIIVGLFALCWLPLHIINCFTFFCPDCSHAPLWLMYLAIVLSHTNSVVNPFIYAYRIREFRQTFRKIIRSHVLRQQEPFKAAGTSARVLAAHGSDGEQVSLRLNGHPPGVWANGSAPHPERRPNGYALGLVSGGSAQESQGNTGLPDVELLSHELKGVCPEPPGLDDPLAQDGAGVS

For `Nc1cc(C(=O)N2CCCCC2)cc2nc(-c3ccccn3)nn12` [Example 34, (5-Amino-2-pyridin-2-yl-[1,2,4]triazolo[1,5-a]pyridin-7-yl)-piperidin-1-yl-methanone], in test [1], the Ki amounted to 0.154 µM and the “selectivity (A1/A2a)” value was 38.8. The Ki in test [2] was 5.98 µM.
For `CCN(CC)C(=O)c1cc(N)n2nc(-c3ccccn3)nc2c1` [Example 35, 5-Amino-2-pyridin-2-yl-[1,2,4]triazolo[1,5-a]pyridine-7-carboxylic acid diethylamide] the same measures were 0.106 µM, 27.5 and 2.92 µM.
`CCCCN(Cc1ccccc1)C(=O)c1cc(N)n2nc(-c3ccccn3)nc2c1` [Example 36, 5-Amino-2-pyridin-2-yl-[1,2,4]triazolo[1,5-a]pyridine-7-carboxylic acid benzyl-butyl-amide]: in test [1], the Ki was 0.0131 µM and the “selectivity (A1/A2a)” value is 15.2. This molecule also came in with a Ki in test [2] of 0.199 µM.
With `Nc1cc(C(=O)NCc2ccccc2Br)cc2nc(-c3ccccn3)nn12` [Example 38, 5-Amino-2-pyridin-2-yl-[1,2,4]triazolo[1,5-a]pyridine-7-carboxylic acid 2-bromo-benzylamide], the figures for the inhibition constant (Ki) in test [1] and in test [2] were 0.0238 µM and 0.109 µM, respectively. Besides, the “selectivity (A1/A2a)” value in test [1] was 4.6.
For `Nc1cc(C(=O)NCc2ccccc2Cl)cc2nc(-c3ccccn3)nn12` [Example 39, 5-Amino-2-pyridin-2-yl-[1,2,4]triazolo[1,5-a]pyridine-7-carboxylic acid 2-chloro-benzylamide] the same measures were 0.0168 µM, 0.0698 µM and 4.2.
With `Nc1cc(C(=O)NCCc2ccccc2F)cc2nc(-c3ccccn3)nn12` [Example 40, 5-Amino-2-pyridin-2-yl-[1,2,4]triazolo[1,5-a]pyridine-7-carboxylic acid [2-(2-fluoro-phenyl)-ethyl]-amide], the Ki in test [1] came out at 0.0499 µM; in test [2] it was 0.204 µM. For the same molecule, the “selectivity (A1/A2a)” value in test [1] was 4.1.
For `COc1ccccc1CNC(=O)c1cc(N)n2nc(-c3ccccn3)nc2c1` [Example 41, 5-Amino-2-pyridin-2-yl-[1,2,4]triazolo[1,5-a]pyridine-7-carboxylic acid 2-methoxy-benzylamide] the same measures were 0.0218 µM, 0.0881 µM and 4.0.
In the case of `Nc1cc(C(=O)NCc2ccc(F)cc2)cc2nc(-c3ccccn3)nn12` [Example 43, 5-Amino-2-pyridin-2-yl-[1,2,4]triazolo[1,5-a]pyridine-7-carboxylic acid 4-fluoro-benzylamide], in test [1], the Ki was 0.0877 µM and the “selectivity (A1/A2a)” value is 2.3. In addition, affinity in test [2] was put at a Ki of 0.203 µM.
Take `CC(NC(=O)c1cc(N)n2nc(-c3ccccn3)nc2c1)c1ccccc1` (stereo not drawn) [Example 44, 5-Amino-2-pyridin-2-yl-[1,2,4]triazolo[1,5-a]pyridine-7-carboxylic acid (1-phenyl-ethyl)-amide]: the Ki was 0.0445 µM in test [1] and 0.12 µM in test [2]. Also, in test [1], the “selectivity (A1/A2a)” value is 2.7.
For `COc1ccccc1CCNC(=O)c1cc(N)n2nc(-c3ccccn3)nc2c1` [Example 45, 5-Amino-2-pyridin-2-yl-[1,2,4]triazolo[1,5-a]pyridine-7-carboxylic acid [2-(2-methoxy-phenyl)-ethyl]-amide], in that order: 0.0535 µM, 0.128 µM and 2.4.
Regarding `Nc1cc(C(=O)NCc2ccccc2)cc2nc(-c3ccccn3)nn12` [Example 46, 5-Amino-2-pyridin-2-yl-[1,2,4]triazolo[1,5-a]pyridine-7-carboxylic acid benzylamide], in test [1], the Ki was determined as 0.0611 µM and the “selectivity (A1/A2a)” value was 3.0. The Ki in test [2] turned out to be 0.184 µM.
For `CCCCCCNC(=O)c1cc(N)n2nc(-c3ccccn3)nc2c1` [Example 47, 5-Amino-2-pyridin-2-yl-[1,2,4]triazolo[1,5-a]pyridine-7-carboxylic acid hexylamide], in that order: 0.0375 µM, 8.4 and 0.316 µM.
For `Nc1cc(C(=O)NC2CCCCC2)cc2nc(-c3ccccn3)nn12` [Example 48, 5-Amino-2-pyridin-2-yl-[1,2,4]triazolo[1,5-a]pyridine-7-carboxylic acid cyclohexylamide] the same measures were 0.0621 µM, 5.9 and 0.366 µM.
For `CCCCNC(=O)c1cc(N)n2nc(-c3ccccn3)nc2c1` [Example 49, 5-Amino-2-pyridin-2-yl-[1,2,4]triazolo[1,5-a]pyridine-7-carboxylic acid butylamide] the same measures were 0.0343 µM, 7.1 and 0.242 µM.
For the molecule `Nc1cc(C(=O)NCCc2ccccc2Cl)cc2nc(-c3ccccn3)nn12` [Example 50, 5-Amino-2-pyridin-2-yl-[1,2,4]triazolo[1,5-a]pyridine-7-carboxylic acid [2-(2-chloro-phenyl)-ethyl]-amide], in test [1], the Ki was determined as 0.119 µM and the “selectivity (A1/A2a)” value is listed as 1.0. In addition, in test [2], the affinity corresponds to a Ki of 0.123 µM.
For `COc1ccc(-c2nc3cc(C(=O)N(Cc4ccccc4)Cc4ccccc4)cc(N)n3n2)s1` [Example 51, 5-Amino-2-(5-methoxy-thiophen-2-yl)-[1,2,4]triazolo[1,5-a]pyridine-7-carboxylic acid dibenzylamide] the same measures were 0.0222 µM, 5.8 and 0.129 µM.
Turning to `COc1ccc(-c2nc3cc(C(=O)NCc4ccccc4Br)cc(N)n3n2)s1` [Example 52, 5-Amino-2-(5-methoxy-thiophen-2-yl)-[1,2,4]triazolo[1,5-a]pyridine-7-carboxylic acid 2-bromo-benzylamide], the Ki in test [1] is 0.108 µM; in test [2] it was 0.0857 µM. For the same molecule, in test [1], the “selectivity (A1/A2a)” value is 0.8.
For `COc1ccc(-c2nc3cc(C(=O)N(Cc4ccccc4)C(C)C)cc(N)n3n2)s1` [Example 55, 5-Amino-2-(5-methoxy-thiophen-2-yl)-[1,2,4]triazolo[1,5-a]pyridine-7-carboxylic acid benzyl-isopropyl-amide], in that order: 0.0283 µM, 0.0764 µM and 2.7.
For `COc1ccc(-c2nc3cc(C(=O)NCc4ccccc4Cl)cc(N)n3n2)s1` [Example 56, 5-Amino-2-(5-methoxy-thiophen-2-yl)-[1,2,4]triazolo[1,5-a]pyridine-7-carboxylic acid 2-chloro-benzylamide], in that order: 0.082 µM, 0.0863 µM and 1.1.
For `COc1ccc(-c2nc3cc(C(=O)NCc4ccccc4OC)cc(N)n3n2)s1` [Example 58, 5-Amino-2-(5-methoxy-thiophen-2-yl)-[1,2,4]triazolo[1,5-a]pyridine-7-carboxylic acid 2-methoxy-benzylamide] the same measures were 0.0719 µM, 0.0527 µM and 0.7.
As to `CCN(Cc1ccccc1)C(=O)c1cc(N)n2nc(-c3ccc(OC)s3)nc2c1` [Example 59, 5-Amino-2-(5-methoxy-thiophen-2-yl)-[1,2,4]triazolo[1,5-a]pyridine-7-carboxylic acid benzyl-ethyl-amide], in test [1], the inhibition constant Ki is 0.0429 µM and the “selectivity (A1/A2a)” value is given as 2.5. In test [2], this molecule yielded a Ki of 0.106 µM.
For `COc1ccc(-c2nc3cc(C(=O)NCc4ccccc4)cc(N)n3n2)s1` [Example 62, 5-Amino-2-(5-methoxy-thiophen-2-yl)-[1,2,4]triazolo[1,5-a]pyridine-7-carboxylic acid benzylamide] the same measures were 0.176 µM, 0.6 and 0.113 µM.
For `CCCCCCNC(=O)c1cc(N)n2nc(-c3ccc(OC)s3)nc2c1` [Example 63, 5-Amino-2-(5-methoxy-thiophen-2-yl)-[1,2,4]triazolo[1,5-a]pyridine-7-carboxylic acid hexylamide], in that order: 0.181 µM, 1.4 and 0.247 µM.
For `COc1ccc(-c2nc3cc(C(=O)NC4CCCCC4)cc(N)n3n2)s1` [Example 64, 5-Amino-2-(5-methoxy-thiophen-2-yl)-[1,2,4]triazolo[1,5-a]pyridine-7-carboxylic acid cyclohexylamide] the same measures were 0.227 µM, 1.0 and 0.223 µM.
Regarding `CCN(C(=O)c1cc(N)n2nc(-c3ccc(OC)s3)nc2c1)C(C)C` [Example 65, 5-Amino-2-(5-methoxy-thiophen-2-yl)-[1,2,4]triazolo[1,5-a]pyridine-7-carboxylic acid ethyl-isopropyl-amide], in test [1], the Ki was 0.0515 µM and the “selectivity (A1/A2a)” value was 4.1. The molecule also had a Ki in test [2] of 0.211 µM.

The values above are taken from US6506772B1, “Substituted [1,2,4]triazolo[1,5a]pyridine derivatives with activity as adenosine receptor ligands” (Hoffmann-La Roche Inc., priority 2000, dated 2003).
